# Source: patent US9834514B2, “Antibiotic sensitivity-restoring and photosensitive agents” (New Mexico Tech Research Foundation, priority 2015, dated 2017)
# Where two headings read alike, the source gives them in different places.
# Key:
# P. aeruginosa = assay: Resensitization to antibiotics (log reduction, TABLE 29); type: cell-based; settings: compound 20 μM; PME (0.1 μg/mL)
# [1] = system: Klebsiella pneumoniae (CRE, ATCC BAA-1705); assay: MIC against CRE; type: cell-based; settings: Klebsiella pneumoniae, ATCCBAA1705
# Procedure: TABLE 27 details the individual MIC values of compounds 1, 7, 8, 9, 10, 11, PMB, PME, and light against CRE.
# The MICs of PME and compounds 8-11 were determined against Klebsiella pneumoniae (CRE, ATCC BAA-1705). […] After the incubation with PME, the compounds were added at a concentration of 20 μM, and the samples were further incubated. At specific time points, the samples were taken and diluted ten-fold in media. Ten microliters of each dilution was then drip-streaked onto an agar plate and incubated overnight at 37° C. Colony counts were then performed and the CFU/mL were calculated.
# [2] = system: Klebsiella pneumoniae (CRE, ATCC BAA-1705); assay: Time-dependent colony counts of CRE with compounds and PME; type: cell-based; settings: PME 0.2 μg/mL, compound 20 μM; FIGS. 48, 49
# Procedure: The MICs of PME and compounds 8-11 were determined against Klebsiella pneumoniae (CRE, ATCC BAA-1705). […] […] At specific time points, the samples were taken and diluted ten-fold in media. Ten microliters of each dilution was then drip-streaked onto an agar plate and incubated overnight at 37° C. Colony counts were then performed and the CFU/mL were calculated.
# [3] = system: MRSA isolates (S. aureus ATCC 33591, BAA-44, BAA-1707, BAA-1717, BAA-1720, BAA-1747, BAA-1754, BAA-1761, BAA-1763, BAA-1764, BAA-1766); assay: Combination effects of compounds 7-11 and antibiotics on MRSA isolates (turbidity); type: cell-based
# Text: Inhibition resulting from co-treatment of a broth suspension with a compound of the invention and an antibiotic was compared to broth suspensions subjected to each individual treatment. A visual observation of inhibition with the unaided eye upon co-treatment of the broth suspensions, based on turbidity, was considered synergistic.
# Exceptions to reading complete inhibition of growth included Gram-positive cocci. For Gram-positive cocci, trailing growth was observed. For these species, the MICs were read at the first spot where trailing was observed, and tiny buttons of growth were ignored. […]
# Two-fold dilutions of the antibiotics were prepared in a liquid growth medium dispensed in test tubes. […] The antibiotic-containing tubes were inoculated with a standard bacterial suspension of 5×10^5 CFU/mL. Following an overnight incubation (16-20 hrs) at 35±2° C. under ambient air, the tubes were examined for visible bacterial growth based on turbidity. The lowest concentration of antibiotic that prevented growth was determined to be the MIC. An incubation time of 24 hrs was used to determine the MICs of oxacillin and vancomycin.
# S. aureus (ATCC 29213) = assay: microbe, parasite or virus in culture; type: cell-based
# Procedure: Each mixture was incubated at 37° C. on a rotary shaking incubator for about 16 hours. MTT was then added to assess the viability of the cells (at 10% well volume). […] The cells were then streaked onto a TSA plate and incubated overnight at 37° C. These steps were repeated to reach a total of 30 exposures.
# [4] = MIC against MRSA isolates; type: cell-based, S. aureus; settings: Staphylococcus aureus
# Procedure, shortened: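 Broth microdilution in TSB, ~5×10^5 CFU/mL, two-fold dilutions from 100 μM, overnight at 37 °C shaking 100 rpm.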
structure (smiles),measurement,setting,value
Clc1ccc(Oc2c(-c3ccc(Cl)cc3)[nH]c3ccc(Cl)cc23)cc1 [Compound 11],Log Reduction,P. aeruginosa,2
same,MIC,[1],> 100 µM
same,CRE colony populations on simultaneous treatment with PME,[2],reduced the CRE colony populations to sterility
same,combination effect with Gentamycin,[3]; MRSA ATCC 33591,No Synergy
same,combination effect with Norfloxacin,[3]; MRSA ATCC 33591,No Synergy
same,combination effect with Oxacillin,[3]; MRSA ATCC 33591,No Synergy
same,combination effect with Tetracycline,[3]; MRSA ATCC 33591,No Synergy
same,combination effect with Vancomycin,[3]; MRSA ATCC 33591,Susceptible
same,combination effect with Norfloxacin,[3]; MRSA ATCC BAA-44,No Synergy
same,combination effect with Oxacillin,[3]; MRSA ATCC BAA-44,Synergy
same,combination effect with Tetracycline,[3]; MRSA ATCC BAA-44,Susceptible
same,combination effect with Vancomycin,[3]; MRSA ATCC BAA-44,Susceptible
same,combination effect with Gentamycin,[3]; MRSA ATCC BAA-1707,Susceptible
same,combination effect with Norfloxacin,[3]; MRSA ATCC BAA-1707,Susceptible
same,combination effect with Oxacillin,[3]; MRSA ATCC BAA-1707,Susceptible
same,combination effect with Tetracycline,[3]; MRSA ATCC BAA-1707,Synergy
same,combination effect with Vancomycin,[3]; MRSA ATCC BAA-1707,Susceptible
same,combination effect with Gentamycin,[3]; MRSA ATCC BAA-1717,Susceptible
same,combination effect with Norfloxacin,[3]; MRSA ATCC BAA-1717,Susceptible
same,combination effect with Oxacillin,[3]; MRSA ATCC BAA-1717,Synergy
same,combination effect with Tetracycline,[3]; MRSA ATCC BAA-1717,Susceptible
same,combination effect with Vancomycin,[3]; MRSA ATCC BAA-1717,Susceptible
same,combination effect with Gentamycin,[3]; MRSA ATCC BAA-1720,Susceptible
same,combination effect with Norfloxacin,[3]; MRSA ATCC BAA-1720,No Synergy
same,combination effect with Oxacillin,[3]; MRSA ATCC BAA-1720,No Synergy
same,combination effect with Tetracycline,[3]; MRSA ATCC BAA-1720,Susceptible
same,combination effect with Vancomycin,[3]; MRSA ATCC BAA-1720,Susceptible
same,combination effect with Gentamycin,[3]; MRSA ATCC BAA-1747,Susceptible
same,combination effect with Norfloxacin,[3]; MRSA ATCC BAA-1747,Susceptible
same,combination effect with Oxacillin,[3]; MRSA ATCC BAA-1747,Susceptible
same,combination effect with Tetracycline,[3]; MRSA ATCC BAA-1747,Susceptible
same,combination effect with Vancomycin,[3]; MRSA ATCC BAA-1747,Susceptible
same,combination effect with Gentamycin,[3]; MRSA ATCC BAA-1754,Susceptible
same,combination effect with Norfloxacin,[3]; MRSA ATCC BAA-1754,Susceptible
same,combination effect with Oxacillin,[3]; MRSA ATCC BAA-1754,No Synergy
same,combination effect with Tetracycline,[3]; MRSA ATCC BAA-1754,Susceptible
same,combination effect with Vancomycin,[3]; MRSA ATCC BAA-1754,Susceptible
same,combination effect with Gentamycin,[3]; MRSA ATCC BAA-1761,Susceptible
same,combination effect with Norfloxacin,[3]; MRSA ATCC BAA-1761,No Synergy
same,combination effect with Oxacillin,[3]; MRSA ATCC BAA-1761,Susceptible
same,combination effect with Tetracycline,[3]; MRSA ATCC BAA-1761,Susceptible
same,combination effect with Vancomycin,[3]; MRSA ATCC BAA-1761,Susceptible
same,combination effect with Gentamycin,[3]; MRSA ATCC BAA-1763,Susceptible
same,combination effect with Norfloxacin,[3]; MRSA ATCC BAA-1763,No Synergy
same,combination effect with Oxacillin,[3]; MRSA ATCC BAA-1763,No Synergy
same,combination effect with Tetracycline,[3]; MRSA ATCC BAA-1763,Susceptible
same,combination effect with Vancomycin,[3]; MRSA ATCC BAA-1763,Susceptible
same,combination effect with Gentamycin,[3]; MRSA ATCC BAA-1764,Susceptible
same,combination effect with Norfloxacin,[3]; MRSA ATCC BAA-1764,Susceptible
same,combination effect with Oxacillin,[3]; MRSA ATCC BAA-1764,No Synergy
same,combination effect with Tetracycline,[3]; MRSA ATCC BAA-1764,Susceptible
same,combination effect with Vancomycin,[3]; MRSA ATCC BAA-1764,Susceptible
same,combination effect with Gentamycin,[3]; MRSA ATCC BAA-1766,Susceptible
same,combination effect with Norfloxacin,[3]; MRSA ATCC BAA-1766,Susceptible
same,combination effect with Oxacillin,[3]; MRSA ATCC BAA-1766,No Synergy
same,combination effect with Tetracycline,[3]; MRSA ATCC BAA-1766,Susceptible
same,combination effect with Vancomycin,[3]; MRSA ATCC BAA-1766,Susceptible
same,Resistance Evolved,S. aureus (ATCC 29213),Yes
same,MIC,"S. aureus (ATCC 29213); Staphylococcus aureus, ATCC29213, read-out: Final MIC Apr. 16, 2015",> 256 µM
same,MIC,"[4]; MRSA (ATCC BAA-44), TABLE 21, read-out: MRSA MIC",8 µM
same,MIC,"[4]; MRSA isolate ATCC 33591, read-out: MIC",6.3 to 12.5 µM
same,MIC,"[4]; MRSA isolate ATCC BAA-44, read-out: MIC",4 µM
same,MIC,"[4]; MRSA isolate ATCC BAA-1707, read-out: MIC",12.5 µM
same,MIC,"[4]; MRSA isolate ATCC BAA-1717, read-out: MIC",3.1 to 6.3 µM
same,MIC,"[4]; MRSA isolate ATCC BAA-1720, read-out: MIC",3.1 to 6.3 µM
same,MIC,"[4]; MRSA isolate ATCC BAA-1747, read-out: MIC",6.3 to 12.5 µM
same,MIC,"[4]; MRSA isolate ATCC BAA-1754, read-out: MIC",50 to 100 µM
same,MIC,"[4]; MRSA isolate ATCC BAA-1761, read-out: MIC",50 to 100 µM
same,MIC,"[4]; MRSA isolate ATCC BAA-1763, read-out: MIC",50 µM
same,MIC,"[4]; MRSA isolate ATCC BAA-1764, read-out: MIC",50 µM
same,MIC,"[4]; MRSA isolate ATCC BAA-1766, read-out: MIC",50 to 100 µM
